Measured values: paper PMC5923171, “Novel Zinc-Attenuating Compounds as Potent Broad-Spectrum Antifungal Agents with In Vitro and In Vivo Efficacy” (Antimicrobial Agents and Chemotherapy, 2018)
≈ marks a conversion by molar mass, not a printed value. Marks after values point to notes of the source that are not given here.

What was measured:
C. albicans SC5314 = assay: Time-kill assay; assay type: cell-based, Candida albicans; conditions: 0.5 μg/ml AMB, 3.6 μg/ml ZAC989, 4.4 μg/ml EDTA, 4.2 μg/ml TPEN; up to 24 h
Experimental: C. albicans SC5314 cells (10^5 CFU/ml) were incubated in 10 ml of RPMI medium at 30°C with gentle agitation (150 rpm) in the presence of EDTA (15 μM), TPEN (10 μM), ZAC989 (10 μM), or AMB (0.5 μM). At the desired time points (0, 3, 5.5, and 24 h), a 100-μl aliquot was removed for each test condition and serially diluted (10-fold) in saline (0.9% NaCl), and 30 μl of each dilution was plated on YPD agar plates. The colony count on each YPD plate was determined after incubation at 30°C for 48 h ([40]). C. albicans cells treated with DMSO (1%, vol/vol) served as a control.

[1] = Potentiometric titration, deprotonation constant; assay type: physicochemical; conditions: DMSO-water (70:30, vol/vol), 25°C, 0.1 M NaClO4
Experimental: The Zn^2+-binding properties of ZAC307 and ZAC989 were further evaluated using a potentiometric assay, where pH is measured as a function of base (NaOH) added to the compound in either the absence or presence of metal. […] To determine the deprotonation constant, a solution of 1 mM ZAC307 or ZAC989 was titrated with 0.3 M NaOH at constant ionic strength (Fig. 2A and B). In a second run, the same titration was performed in the presence of 0.5 eq of Zn^2+ for ZAC307 and ZAC989. A shift in the pH curve in the presence of the metal (ZAC307, 0.5 eq of Zn^2+ [Fig. 2A]) compared to the absence of the metal (ZAC307 [Fig. 2A]) indicates binding of Zn^2+ to the compound. The measured pH data were analyzed with the Hyperquad program suite, taking into account all relevant equilibrium constants, including also the constants for metal hydroxylation. The analysis provides the pKa values and metal complex stability constants, as well as ligand-metal complex speciation calculation, indicating how many ZAC molecules are involved in coordinating the Zn^2+ ion at different pH values. […] ZAC989 bound copper with the formation constants log β1, log β2, and log β3 of 7.83, 13.37, and 20.62, respectively. The most dominant ZAC989-copper stoichiometry was a 3:1 stoichiometry (Fig. 2E).
Potentiometric measurements were carried out in DMSO-water (70:30, vol/vol) at 25°C as described previously ([22]). […]

[2] = Potentiometric titration with MgCl2; assay type: binding; conditions: DMSO-water (70:30, vol/vol)
[3] = test system: Rhizopus oryzae ATCC 34965; assay: Antifungal susceptibility testing (MIC); assay type: cell-based; conditions: Rhizopus arrhizus, ATCC34965; no visible growth, 48 to 72 h, 34°C
Experimental: Antifungal susceptibility testing was carried out as described previously ([38], [39]), with a few modifications. Briefly, for each yeast or mold growth inhibition assay, frozen stocks of yeast cells or spores were diluted to a final concentration of 0.5 × 10^5 to 2.5 × 10^5 CFU/ml in sterile water. ZAC989, ZAC307, and ZAC623 were dissolved in DMSO to 10 mM stocks from which half-log serial dilutions were prepared. Growth assays were subsequently performed by pipetting 3 μl of compound dissolved in DMSO (giving a final concentration of 1.5% DMSO), 100 μl of cell-spore suspension, and 97 μl of 2× RPMI medium (20.8 g/liter of RPMI 1640 medium, 69.06 g/liter of morpholinepropanesulfonic acid [MOPS], 36 g/liter of glucose) into a microtiter plate that was incubated for 24 h (yeasts) or 48 to 72 h (molds) at 34°C. Fungal growth was determined spectrophotometrically by optical density reading of each well at a wavelength of 492 nm on a Victor X5 (Perkin-Elmer) plate reader. […] Standard errors between repeated experiments were generally below 5%. The growth effect of exogenous addition of various divalent metals was evaluated by performing the antifungal susceptibility assay in the presence of 5 μM ZAC989 or ZAC307 and with increasing concentrations (0.003 to 50 μM) of ZnSO4, CuSO4, (NH4)2Fe(SO4)2, MgCl2, and CaCl2.

Candida albicans SC5314 = assay: In vivo fungal kidney burden candidiasis model; parameters: species or system BALB/c mice; conditions: for Mean log CFU/kidney / Mean log CFU/kidney reduction: 60 mg/kg i.p. twice a day; for Mean log CFU/kidney reduction: vs untreated control; for adverse effects following dosing: 60 mg/kg i.p., mice
Experimental: A murine model of systemic candidiasis was established according to a previously described method ([44]). BALB/c mice were infected with a 0.1-ml inoculum (1 × 10^5 to 5 × 10^5 CFU) of Candida albicans SC5314 cells by the intravenous route on day 0. Compounds were tested at doses of 60 mg/kg. Administration of compound was initiated 24 h prior (day −1) to infection (day 0) by the intraperitoneal route, dosing twice a day for 4 days (day −1 to day 2). ZAC307 was also evaluated with administration of the compounds given after the infection at day 0 (no pretreatment) and following dosing twice a day for 3 days (days 0 to 2). Fluconazole was used as a comparator drug. Six mice were used for each group, and the untreated control group was exposed to the vehicle alone. ZAC989 and ZAC307 were formulated by taking 60 mg of compound and adding this to 2 ml and 4 ml of 0.1 N NaOH, respectively. After mixing and sonication of the resulting solutions, 4 ml of purified water was added. The pH was adjusted to 9.0 with 0.1 N HCl solution, followed by the addition of 90 mg of NaCl. The solutions were then diluted to 10 ml and filtered through a 0.22-μm polyvinylidene difluoride (PVDF) filter. Sample collection and processing were performed as follows. Twelve hours after the last dose, all treated and untreated animals were sacrificed by cervical dislocation and kidneys were collected in 3 ml of sterile normal saline. The samples were homogenized, serially diluted, and plated on Sabouraud dextrose agar (SDA). SDA plates were incubated for 24 to 48 h at 35°C, and CFU were enumerated and reported as log CFU/kidney. The endpoint was mean log CFU of fungi in kidneys of treated animals compared to that of untreated animals. The study was conducted in conformance with an application submitted to the Committee for the Purpose of Control and Supervision of Experiments on Animals (CPCSEA), New Delhi, India, after approval from the Institutional Animal Ethics Committee (IAEC).

Question: For O=C(O)CN(CCN(CC(=O)O)CC(=O)O)CC(=O)O [EDTA], which “time-kill activity (fungistatic or fungicidal)” value (C. albicans SC5314) is on record?
Answer: Its value is “fungistatic effect within the first 24 h of exposure”.

Question: Which pKa [1] does the source give for Cc1cc(O)n(-c2cc(N3CC[C@H](Oc4cnccc4C#N)C3)ncn2)n1 [ZAC989, 3-[(3S)-1-[6-(5-hydroxy-3-methyl-pyrazol-1-yl)pyrimidin-4-yl]pyrrolidin-3-yl]oxy-pyridine-4-carbonitrile] here?
Answer: The pKa was 7.7.

Question: And the “Mg^2+ binding” value [2]?
Answer: Its value is “negligible”.

Question: And the MIC [3]?
Answer: Its MIC is 1.7 µg/mL (≈ 4.68 µM).

Question: What about the “Mean log CFU/kidney” value (Candida albicans SC5314; day −1 to day 2 (pretreatment)) of the same compound?
Answer: The value was 4.09 ± 0.31 log CFU/kidney.

Question: And the “Mean log CFU/kidney reduction” value (Candida albicans SC5314; day −1 to day 2 (pretreatment))?
Answer: The value was 1.71 log CFU/kidney.

Question: And the “adverse effects following dosing” value (Candida albicans SC5314)?
Answer: The value was “lethargy lasting for 5 to 15 min after dosing”.

Question: With c1ccc(CN(CCN(Cc2ccccn2)Cc2ccccn2)Cc2ccccn2)nc1 [TPEN, N,N,N’,N’-tetrakis(2-pyridylmethyl)-ethylenediamine] as the compound, how does the “time-kill activity (fungistatic or fungicidal)” value (C. albicans SC5314) read?
Answer: Its value is “fungistatic effect within the first 24 h of exposure”.

Question: With CN(C)c1cc(-n2nc(-c3ccccc3)cc2O)ncn1 [ZAC307, 2-[6-(dimethylamino)pyrimidin-4-yl]-5-phenyl-pyrazol-3-ol] as the compound, how does the pKa [1] read?
Answer: The pKa was 6.84.

Question: And the “Mg^2+ binding” value [2]?
Answer: Its value is “negligible”.

Question: And the MIC [3]?
Answer: The MIC was 1.3 µg/mL (≈ 4.62 µM).

Question: What about the “Mean log CFU/kidney” value (Candida albicans SC5314; day −1 to day 2 (pretreatment)) of the same compound?
Answer: Its value is 4.73 ± 0.19 log CFU/kidney.

Question: And the “Mean log CFU/kidney reduction” value (Candida albicans SC5314; day −1 to day 2 (pretreatment))?
Answer: The value was 1.06 log CFU/kidney.

Question: What about the “Mean log CFU/kidney” value (Candida albicans SC5314; days 0 to 2, no pretreatment) of the same compound?
Answer: The value was 4.77 ± 0.19 log CFU/kidney.

Question: What about the “Mean log CFU/kidney reduction” value (Candida albicans SC5314; days 0 to 2, no pretreatment) of the same compound?
Answer: The value was 1.03* log CFU/kidney.

Question: What about the “adverse effects following dosing” value (Candida albicans SC5314) of the same compound?
Answer: The value was “no adverse effects”.
